Laboratory results: patent EP1209147A1, “CARBOXYLIC ACID DERIVATIVES AND ADHESION MOLECULE INHIBITORS CONTAINING THE SAME AS THE ACTIVE INGREDIENT” (TORAY INDUSTRIES, INC., priority 1999, dated 2001)

Tests used:
[1] = test system: Jurkat cells (ATCC TIB-152); assay: Influence on cell survival rate (alamarBlue); assay type: cell-based; conditions: cultured 24 hours with compound
Experimental: Jurkat cells (ATCC TIB-152) passaged on 10% fetal calf serum-containing RPMI medium (10F-RPMI, GIBCO) were suspended in the same medium to a cell population of 5 x 10^5 cells/ml, and the suspension was placed in each well of a 96-well plate (COSTAR) in an amount of 100 µl/well, followed by culturing the cells at 37°C under 5% CO2 for 24 hours. Then alamarBlue®(BioSource) was added in an amount of 10 µl/well and the cells were cultured for another 4 hours. Thereafter, the absorbance at 570 nm and 600 nm was measured with a microplate reader (BioRad model 3550). The test compound dissolved in 10F-RPMI was mixed with the Jurkat cells and the cells were cultured for 24 hours to examine its influence.

[2] = test system: superoxide; assay: Radical scavenger action (superoxide from xanthine and xanthine oxidase); assay type: biochemical; conditions: luminescence at 380 nm, 10 to 60 seconds after xanthine oxidase addition
Experimental: The radical scavenger action of the compounds was measured using the amount of the superoxide as an index, which is produced when xanthine and xanthine oxidase are reacted. First, 1 mM of xanthine (SIGMA) dissolved in Hanks buffer solution (GIBCO), 2 mM dietylenetriamine-N,N,N',N"-pentaacetic acid (DOJIN) and 40 µM 2-methyl-6-phenyl-3,7-dihydroimidazo[1,2-a]pyrazin-3-one (TOKYO KASEI KOGYO) dissolved in distilled water when use were mixed. Further, 0.3 U/ml xanthine oxidase (BMY) dissolved in Hanks buffer when use was added. Luminescence intensity at 380 nm from 10 seconds to 60 seconds after the addition was measured by Lumat (Berthold, LB9501), and the measured amount was defined as the amount of produced superoxide. The test compound was added to the xanthine-containing solution before addition of the xanthine oxidase, and the resulting mixture was preincubated at 25°C for 5 minutes to examine its influence.

[3] = test system: Mouse Asthma Model; assay: Mouse asthma model (OVA/Alum sensitization, OVA inhalation, airway anaphylaxis and BALF eosinophils); assay type: in vivo, BLAB/c mouse; conditions: at a dose of not more than 150 mg/kg, topically or systemically
Experimental: A mixed solution containing aluminum hydroxide gel (Alum) on which ovalbumin (hereinafter "OVA") was adsorbed (20 ∝g OVA/2mg Alum/200 ∝l physiological saline) was intraperitoneally administered to each BLAB/c mouse (female, 7 weeks old, JAPAN CHARLES RIVER) at a dose of 200 ∝l ([…]) per time on DAY-1 and DAY-14 to sensitize the mouse. Then each mice was made to aspire 2% OVA dissolved in physiological saline on DAY-28, 29 and 30 to induce inflammation. Compound Nos. 143 and 236 used as the test compounds were dissolved in physiological saline and each solution was topically or systemically administered at 30 minutes before induction by OVA, and twice a day after induction.
On DAY-31, development of airway anaphylaxis was measured using a non-restrictive chamber (BUXCO). Then the bronchus of each mouse was incised and the bronchus and alveoli were washed (BAL) with 0.7 ml of physiological saline. After the washing, the washing fluid (BALF) of the bronchus and alveoli was recovered and centrifuged. The leukocytes contained in the BALF were subjected to site spin to prepare a smear specimen. After staining the specimen by May-Giemsa staining method, the leukocytes were grouped and counted under microscope to determine the number of eosinophils. The experiment was carried out using 6 to 8 mice in each group. The results are shown in terms of mean ± standard error.

| Compound | influences on the survival rate of the cells relative to 3-(4-((2,6-dichlorophenyl)carbonylamino)phenyl)-2-((6-bromo-2-methylphenyl)carbonylamino)propanoic acid [1] | radical scavenger activities relative to 3-(4-((2,6-dichlorophenyl)carbonylamino)phenyl)-2-((6-bromo-2-methylphenyl)carbonylamino)propanoic acid [2] [times] | accumulation of eosinophils to the lung ([3]; BALF on DAY-31) | progress of airway anaphylaxis ([3]; DAY-31) |
| --- | --- | --- | --- | --- |
| O=C(Nc1ccn(C[C@H](NC(=O)c2c(Cl)cccc2Cl)C(=O)O)c(=O)n1)c1c(Cl)cccc1Cl [Example 236, (2S)-2-((2,6-dichlorophenyl)carbonylamino)-3-(4-((2,6-dichlorophenyl)carbonylamino)-2-oxohydropyrimidinyl)propionic acid] | not more than 1/4 | 2 to 5 | inhibited | inhibited |
| Cc1cccc(Br)c1C(=O)N[C@@H](Cn1ccc(NC(=O)c2c(Cl)cccc2Cl)nc1=O)C(=O)O [Example 240, (2S)-3-(4-((2,6-dichlorophenyl)carbonylamino)-2-oxohydropyrimidinyl)-2-((2-bromo-6-methylphenyl)carbonylamino)propionic acid] | not more than 1/4 | 2 to 5 |  |  |
